{"source": "patent US9943599B2", "about": "“Therapeutic applications of calcium electroporation to effectively induce tumor necrosis” (Herlev Hospital, priority 2011, dated 2018)", "key": {"[1]": {"test_system": "SW780 (human bladder cancer) tumors", "test": "Fraction of necrosis after calcium electroporation, SW780 tumors", "format": "in vivo, NMRI-Foxn1^nu mice", "experimental": "LPB, a murine sarcoma cell line, B16, a murine malignant melanoma cell line, MDA-MB231, human a breast cancer cell line, HT29, a human colon cancer cell line, and SW780, a human bladder cancer cell line were used for the in vivo experiment. The cells were tested by rapid MAP27 panel (Taconic, Hudson N.Y.) before use without signs of infection. 2×10^5 cells (B16), 8×10^5 cells (LPB), 2.5×10^6 cells (MDA-MB231), and 5×10^6 cells (HT29 and SW780) in 100 μl PBS were injected subcutaneously in the flank of NMRI-Foxn1^nu mice (Harlan, Indianapolis, Ind.) that were 9-11 weeks old. Mice were randomised at a tumor volume above 85 mm^3 and tumors were treated with injection of isotonic calcium-chloride solution (168 mM CaCI2) and electroporation (8 pulses of 1.0 kv/cm for 100 μs and a frequency of 1 Hz) using a 6 mm plate electrode and a square wave electroporator (CLINIPORATOR®, IGEA, Modena, Italy). Tumor volume was calculated as ab^2n/6, where a is the largest diameter and b is the largest diameter perpendicular to a. The injected volume was half of the tumor volume. […] The fraction of necrosis within the tumor was estimated from HE-sections by stereological point counting using a light microscope, evaluated by a pathologist, blinded with respect to treatment status.\nThe difference in fraction of necrosis at different time after treatment was assessed using student's t-test."}, "[2]": {"test_system": "skin dermis and subcutis above MDA-MB231 tumor", "test": "Normal tissue reaction, skin above the tumor", "format": "in vivo, NMRI-Foxn1nu mice", "conditions": "some of the mice treated with the high concentration and volume of calcium", "experimental": "MDA-MB231, a human breast cancer cell line was used for the in vivo experiments. The cells were tested by rapid MAP27 panel (Taconic, Hudson N.Y.) before use without signs of infection. Cells were maintained in vitro as described in Example 1. 2.5×10^6 cells/100 μl PBS were injected subcutaneously in the flank of NMRI-Foxn1nu mice (Harlan, Indianapolis, Ind.). Tumor pieces were transplanted twice from donor mice to the flank of nude mice that were 13-19 weeks old. HYPNORM™-DORMICUM™ (fentanyl/fluanisone/midazolam; VetaPharma, Leeds, U K and Roche, Basel, Switzerland) was used for anesthesia complemented with RIMADYL® (Carprofen) (Pfizer ApS, Ballerup, Denmark) as well as lidocaine (Region Hovedstadens Apotek, Herlev, Denmark) in the incision. […] Tumor volume was calculated as ab2n/6, where “a” is the largest diameter and “b” is the largest diameter perpendicular to “a”. […] Estimation of normal tissue damages was evaluated semiquantitatively on HE-sections by light[ ]microscopy (LEICA® DM 2000 light microscope, Leica Microsystems, Wetzlar, Germany).\nThe presence of inflammation in the skin dermis and subcutis was scored from 1-3 (1=minimal, 2=moderate and 3=severe). Edema in the dermis, extravasations of erythrocytes and vasculitis was noted if present, but not scored."}, "[3]": {"test_system": "DC-3F, K-562 and Lewis Lung Carcinoma cells", "test": "In vitro electroporation, MTT viability assay", "format": "cell-based, Chinese hamster, human, murine", "experimental": "Three cell lines are used for in vitro experiments, DC-3F, a transformed Chinese hamster lung fibroblast cell line; K-562, a human leukemia cell line; and Lewis Lung Carcinoma, a murine lung carcinoma cell line. DC-3F cells were tested for mycoplasma in January 2011, K-562 cells were tested for mycoplasma in 2008 prior to freezing and thawing just before experiments were performed, and Lewis Lung cells were tested by rapid MAP27 panel (Taconic, Hudson N.Y.) in July 2011 without signs of infection. Cells are maintained in RPMI 1640 culture medium (GIBCO™, Life Technologies, Carlsbad, Calif.) with 10% fetal calf serum (GIBCO™, Life Technologies, Carlsbad, Calif.), penicillin and streptomycin at 37° C. and 5% C02. After harvesting, cells are washed and diluted in HEPES buffer containing 10 mM HEPES (Lonza, Basel, Switzerland), 250 mM sucrose and 1 mM MgCl2 in sterile water. 270 μl cell suspension (6.1×10^6 cells/ml) and 30 μl CaCl2, or in the case of controls, HEPES buffer, are electroporated in 4 mm wide cuvettes with aluminium electrodes (Molecular BioProducts, Inc., San Diego, Calif.). Cooled cells (8° C.) are exposed to 8 pulses of 1.2 kV/cm with pulse duration of 99 μs (DC-3F and K562 cells) or 8 pulses of 1.4 kV/cm with pulse duration of 99 μs (Lewis Lung Carcinoma) using a BTX® T820 square wave electroporator (BTX®, Harvard Apparatus, Holliston, Mass.). The electroporation parameters are chosen after optimization to obtain high permabilisation and cell survival. After 20 min at 37° C. and 5% CO2 cells are diluted in RPMI 1640 culture medium with 10% fetal calf serum and penicillin-streptomycin and seeded in 96-well plates at a concentration of 3.1×10^4 cells/100 μl.\nDifference between electroporated and non-electroporated cells in identical buffer is assessed using two-way analysis of variance (ANOVA) with post least-squares-means test with Bonferroni correction for multiple comparisons."}}, "note": "Where two headings read alike, the source gives them in different places."}
{"smiles": "[Ca+2].[Cl-].[Cl-]", "note": "[calcium chloride]", "values": [{"measurement": "fraction of necrosis in tumors, course", "setting": "[1]; 168 mM CaCl2, half tumor volume, electroporation, first days after treatment", "result": "progressive necrosis"}, {"measurement": "tumor re-growth", "setting": "[1]; 6 days after the treatment", "result": "re-growth"}, {"measurement": "ulceration above the tumor", "setting": "[2]", "result": "ulceration above the tumor was seen"}, {"measurement": "EC50", "setting": "[3]; all electroporated cell lines, 8 pulses 1.2-1.4 kV/cm, 99 μs, MTT 1 and 2 days after treatment, read-out: EC50 (decrease in viability)", "result": 570, "unit": "µM"}, {"measurement": "lowest concentration inducing high cell death", "setting": "[3]; electroporated", "result": 1, "unit": "mM"}, {"measurement": "calcium concentration from which viability decreases significantly (p<0.01)", "setting": "[3]; electroporated, all cell lines", "result": "≥ 0.5", "unit": "mM"}, {"measurement": "cell death after calcium electroporation", "setting": "[3]; electroporated, all three cell lines", "result": "dose dependent cell death"}, {"measurement": "effect on cell viability", "setting": "[3]; non-electroporated cells, high calcium concentrations", "result": "no effect on cell viability"}, {"measurement": "EC50", "setting": "[3]; range over the electroporated cell lines, read-out: EC50 range (decrease in viability)", "result": "350 to 790", "unit": "µM"}, {"measurement": "EC50 (decrease in viability)", "setting": "[3]; without electroporation", "result": "not reached"}]}
